In PubChem BioAssay AID330 (DTP/NCI, 2004):
Where “and” joins values, the source holds several entries; their conditions need not be identical. Equal entries are not always repeated. Toxic doses and inconclusive results are not listed.

Tested on: P388 leukemia ip, CD2F1 mice, survival T/C
Assay: NCI In Vivo Anticancer Drug Screen. Data for tumor model P388 Leukemia (intraperitoneal) in CD2F1 (CDF1) mice
Conditions: endpoint: median survival time, higher = longer survival
Outline: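 Mice carrying the transplanted tumor received test compound or vehicle. Survival was recorded in each group, and the value is the treated-group measurement divided by that of the vehicle-treated control group.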

[1] = dose: 50.0 mg/kg/injection, schedule: Q01DX009 (ip), vehicle: Klucel (hydroxypropylcellulose) (HPC)
[2] = dose: 100.0 mg/kg/injection, schedule: Q01DX009 (ip), vehicle: Klucel (hydroxypropylcellulose) (HPC)
[3] = dose: 200.0 mg/kg/injection, schedule: Q01DX009 (ip), vehicle: Klucel (hydroxypropylcellulose) (HPC)
[4] = dose: 50.0 mg/kg/injection, schedule: Q01DX005 (ip), vehicle: Klucel (hydroxypropylcellulose) (HPC)
[5] = dose: 100.0 mg/kg/injection, schedule: Q01DX005 (ip), vehicle: Klucel (hydroxypropylcellulose) (HPC)
[6] = dose: 200.0 mg/kg/injection, schedule: Q01DX005 (ip), vehicle: Klucel (hydroxypropylcellulose) (HPC)
[7] = dose: 50.0 mg/kg/injection, schedule: Q01DX009 (ip), vehicle: saline
[8] = dose: 3.12 mg/kg/injection, schedule: Q01DX005 (ip), vehicle: Klucel (hydroxypropylcellulose) (HPC)
[9] = dose: 12.5 mg/kg/injection, schedule: Q01DX005 (ip), vehicle: Klucel (hydroxypropylcellulose) (HPC)
[10] = dose: 60.0 mg/kg/injection, schedule: Q01DX005 (ip), vehicle: Klucel (hydroxypropylcellulose) (HPC)
[11] = dose: 120.0 mg/kg/injection, schedule: Q01DX005 (ip), vehicle: Klucel (hydroxypropylcellulose) (HPC)
[12] = dose: 60.0 mg/kg/injection, schedule: Q01DX005 (ip), vehicle: saline with Tween-80
[13] = dose: 120.0 mg/kg/injection, schedule: Q01DX005 (ip), vehicle: saline with Tween-80
[14] = dose: 240.0 mg/kg/injection, schedule: Q01DX005 (ip), vehicle: saline with Tween-80
[15] = dose: 100.0 mg/kg/injection, schedule: Q04DX002 (ip), vehicle: saline with Tween-80
[16] = dose: 200.0 mg/kg/injection, schedule: Q04DX002 (ip), vehicle: saline with Tween-80
[17] = dose: 400.0 mg/kg/injection, schedule: Q04DX002 (ip), vehicle: saline with Tween-80
[18] = dose: 50.0 mg/kg/injection, schedule: Q01DX009 (ip), vehicle: saline with Tween-80
[19] = dose: 100.0 mg/kg/injection, schedule: Q01DX009 (ip), vehicle: saline with Tween-80
[20] = dose: 200.0 mg/kg/injection, schedule: Q01DX009 (ip), vehicle: saline with Tween-80
[21] = dose: 50.0 mg/kg/injection, schedule: Q01DX005 (ip), vehicle: saline with Tween-80
[22] = dose: 100.0 mg/kg/injection, schedule: Q01DX005 (ip), vehicle: saline with Tween-80
[23] = dose: 200.0 mg/kg/injection, schedule: Q01DX005 (ip), vehicle: saline with Tween-80
[24] = dose: 25.0 mg/kg/injection, schedule: Q01DX009 (ip), vehicle: saline with Tween-80
[25] = dose: 60.0 mg/kg/injection, schedule: Q01DX005 (ip), vehicle: saline
[26] = dose: 120.0 mg/kg/injection, schedule: Q01DX005 (ip), vehicle: saline
[27] = dose: 240.0 mg/kg/injection, schedule: Q01DX005 (ip), vehicle: saline

With `C=CCN1C(=O)NC(=O)C(c2ccccc2)C1=O` (centres undefined) the T/C [1] was 98 % of control, the T/C [2] was 100 % of control and the T/C [3] was 92 % of control.
For `O=C1c2ccccc2C(=O)C2C3C=CC(CC3)C12` (centres undefined), the T/C [4] was 105 % of control, the T/C [5] was 102 % of control and the T/C [6] was 99 % of control.
With `c1ccc(Cc2cc[n+](Cc3ccccc3)cc2)cc1` the T/C (dose: 12.5 mg/kg/injection, schedule: Q01DX009 (ip), vehicle: saline) was 100 % of control, the T/C (dose: 25.0 mg/kg/injection, schedule: Q01DX009 (ip), vehicle: saline) was 101 % of control and the T/C [7] was 101 % of control and 89 % of control.
`COC(=O)C1=C2Nc3ccccc3C23CCN2C(O)C4(CC5CC67CCOC6CCN6CCC8(c9cccc(OC)c9N(C4)C58O)C67)C4OCCC4(C1)C23` (centres undefined) was tested, and the T/C [8] was 96 % of control, the T/C (dose: 6.25 mg/kg/injection, schedule: Q01DX005 (ip), vehicle: Klucel (hydroxypropylcellulose) (HPC)) was 99 % of control and the T/C [9] was 99 % of control. The T/C (dose: 25.0 mg/kg/injection, schedule: Q01DX005 (ip), vehicle: Klucel (hydroxypropylcellulose) (HPC)) was 87 % of control and 89 % of control.
`COc1ccc2c(c1OC)C(CC(C)=O)N1CCc3cc4c(cc3C1C2=O)OCO4` (centres undefined) was tested, and the T/C [10] was 100 % of control, the T/C [11] was 92 % of control and the T/C (dose: 240.0 mg/kg/injection, schedule: Q01DX005 (ip), vehicle: Klucel (hydroxypropylcellulose) (HPC)) was 88 % of control.
`O=Cc1cc(C=O)c2ccc(=O)[nH]c2n1` was tested, and the T/C [10] was 109 % of control and the T/C [11] was 114 % of control.
`Cc1n[nH]c(=O)c(N)c1-c1cc(-c2ccccc2)n[nH]1` was tested, and the T/C [12] was 91 % of control, the T/C [13] was 94 % of control and the T/C [14] was 93 % of control.
`COCOc1cccc2c1C(O)CC2` (centres undefined) was tested, and the T/C [12] was 100 % of control, the T/C [13] was 100 % of control and the T/C [14] was 98 % of control.
In the case of `ClC1COc2cc(c3ccccc3c2)-c2c(ccc3ccccc23)OCCOCCOc2ccc3ccccc3c2-c2c(ccc3ccccc23)OCC(Cl)O1` (centres undefined), the T/C [15] is reported as 102 % of control, the T/C [16] is reported as 102 % of control and the T/C [17] is reported as 105 % of control.
With `Nc1ccc2c(c1)C1(CCC2)NC(=O)NC1=O` (centres undefined) the T/C [18] was 96 % of control, the T/C [19] was 95 % of control and the T/C [20] was 105 % of control.
For `Cc1cc(N/N=C/c2ccc(N(CCCl)CCCl)cc2)nc2ccc(Cl)cc12`, the T/C [7] was 97 % of control, the T/C (dose: 100.0 mg/kg/injection, schedule: Q01DX009 (ip), vehicle: saline) was 100 % of control and the T/C (dose: 200.0 mg/kg/injection, schedule: Q01DX009 (ip), vehicle: saline) was 100 % of control.
With `N=C(N)c1ccc2cc(/C=C/c3cc4ccc(C(=N)N)cc4o3)[nH]c2c1` the T/C (dose: 50.0 mg/kg/injection, schedule: Q04DX003 (ip), vehicle: saline) was 157 % of control and the T/C (dose: 50.0 mg/kg/injection, schedule: Q04DX003 (ip), vehicle: suspension in saline) was 208 % of control.
With `O=C(NCCCCCNC(=O)C12CC3CC(CC(C3)C1)C2)C12CC3CC(CC(C3)C1)C2` the T/C [4] was 90 % of control, the T/C [21] was 102 % of control and the T/C [5] was 89 % of control. The T/C [22] was 105 % of control and the T/C [23] was 95 % of control.
In the case of `CC(=O)CS(F)(F)(F)(F)F`, the T/C [21] is reported as 105 % of control.
In the case of `O=C(Nc1ccccc1O)C1C(=O)C(=O)N(c2ccccc2O)C1=O` (centres undefined), the T/C [24] is reported as 97 % of control, the T/C [1] is reported as 101 % of control and 105 % of control and 107 % of control and the T/C [18] is reported as 105 % of control. The T/C [2] was 99 % of control and 101 % of control (2×), the T/C [19] was 97 % of control and the T/C [3] was 106 % of control. The T/C [20] was 102 % of control.
`CCS/C(SC)=C(/c1ccccc1)[P+](c1ccccc1)(c1ccccc1)c1ccccc1` was tested, and the T/C [8] was 106 % of control and the T/C [9] was 117 % of control.
In the case of `O=c1c2c([nH]c3c1ccc1c(=O)c4c([nH]c13)CCCC4)CCCC2`, the T/C [18] is reported as 98 % of control, the T/C [19] is reported as 96 % of control and the T/C [20] is reported as 94 % of control.
For `O=C(c1ccccc1)N1C=CC(=Cc2ccccc2)C=C1`, the T/C (dose: 1.56 mg/kg/injection, schedule: Q01DX009 (ip), vehicle: Klucel (hydroxypropylcellulose) (HPC)) was 102 % of control, the T/C (dose: 3.12 mg/kg/injection, schedule: Q01DX009 (ip), vehicle: Klucel (hydroxypropylcellulose) (HPC)) was 106 % of control and the T/C (dose: 6.25 mg/kg/injection, schedule: Q01DX009 (ip), vehicle: Klucel (hydroxypropylcellulose) (HPC)) was 101 % of control and 96 % of control.
`N[C@H](CCOc1ccc(/C(=N/O)C(=O)N[C@H]2CN([C@@H](C(=O)O)c3ccc(O)cc3)C2=O)cc1)C(=O)O` was tested, and the T/C (dose: 50.0 mg/kg/injection, schedule: Q01DX005 (ip), vehicle: water) was 101 % of control, the T/C (dose: 100.0 mg/kg/injection, schedule: Q01DX005 (ip), vehicle: water) was 97 % of control and the T/C (dose: 200.0 mg/kg/injection, schedule: Q01DX005 (ip), vehicle: water) was 105 % of control.
In the case of `CC(=O)OC1CC(n2cc(C)c(=O)[nH]c2=O)OC1COP(=O)(N1CC1)N1CC1` (centres undefined), the T/C (dose: 25.0 mg/kg/injection, schedule: Q04DX003 (ip), vehicle: saline with Tween-80) is reported as 104 % of control, the T/C (dose: 50.0 mg/kg/injection, schedule: Q04DX003 (ip), vehicle: saline with Tween-80) is reported as 112 % of control and the T/C (dose: 100.0 mg/kg/injection, schedule: Q04DX003 (ip), vehicle: saline with Tween-80) is reported as 124 % of control.
For `Cn1c2c(c(=O)n(C)c1=O)N1c3c(n(C)c(=O)n(C)c3=O)NN1C(c1ccccc1)=N2`, the T/C (dose: 100.0 mg/kg/injection, schedule: Q01DX001 (ip), vehicle: saline with Tween-80) was 95 % of control, the T/C (dose: 200.0 mg/kg/injection, schedule: Q01DX001 (ip), vehicle: saline with Tween-80) was 88 % of control and the T/C (dose: 400.0 mg/kg/injection, schedule: Q01DX001 (ip), vehicle: saline with Tween-80) was 89 % of control.
In the case of `[N-]=[N+]=NC(=O)c1cccs1`, the T/C (dose: 12.5 mg/kg/injection, schedule: Q01DX009 (ip), vehicle: saline with Tween-80) is reported as 100 % of control, the T/C [24] is reported as 101 % of control and the T/C [18] is reported as 100 % of control.
With `CN(C)N1Cc2ccccc2NC1=O` the T/C [4] was 102 % of control, the T/C [5] was 96 % of control and the T/C [6] was 110 % of control.
For `C[Si](C)(C)Cn1ccc(=O)n(C[Si](C)(C)C)c1=O`, the T/C [21] was 107 % of control, the T/C [22] was 101 % of control and the T/C [23] was 107 % of control.
For `CCCCCCn1c(Cl)c(C(=O)O)c2ccccc21`, the T/C [15] was 99 % of control, the T/C [16] was 97 % of control and the T/C [17] was 95 % of control.
In the case of `CN(C)CC(CN(C)C)C(O)c1ccccc1` (centres undefined), the T/C [25] is reported as 109 % of control, the T/C [26] is reported as 100 % of control and the T/C [27] is reported as 109 % of control.
For `COc1cc2c(cc1OC)C13CC[N+]4([O-])CC5=CCOC6CC(=O)N2C1C6C5CC34` (centres undefined), the T/C (dose: 15.0 mg/kg/injection, schedule: Q01DX005 (ip), vehicle: saline) was 107 % of control, the T/C (dose: 30.0 mg/kg/injection, schedule: Q01DX005 (ip), vehicle: saline) was 108 % of control and the T/C [25] was 106 % of control and 107 % of control. The T/C [26] was 100 % of control and the T/C [27] was 97 % of control.
For `COC(=O)c1cccc2c1N(C)c1c(cccc1C(=O)OC)CC2`, the T/C (dose: 50.0 mg/kg/injection, schedule: Q01DX009 (ip), vehicle: distilled water + Tween-80 + alcohol) was 93 % of control, the T/C (dose: 100.0 mg/kg/injection, schedule: Q01DX009 (ip), vehicle: distilled water + Tween-80 + alcohol) was 94 % of control and the T/C (dose: 200.0 mg/kg/injection, schedule: Q01DX009 (ip), vehicle: distilled water + Tween-80 + alcohol) was 99 % of control.
In the case of `ICC1Cc2ccccc2O1` (centres undefined), the T/C [18] is reported as 99 % of control, the T/C [19] is reported as 101 % of control and the T/C [20] is reported as 103 % of control.
`[O-][n+]1c(C2=C(N3CCCC3)c3ccccc3C2)c(Cl)c(Cl)c(Cl)c1C1=C(N2CCCC2)c2ccccc2C1` was tested, and the T/C (dose: 25.0 mg/kg/injection, schedule: Q01DX005 (ip), vehicle: saline with Tween-80) was 102 % of control, the T/C [21] was 103 % of control and the T/C [22] was 93 % of control.
